Assays:
Assay type in all cases: cell-based, human
[1] = tested on: autologous DC of CLL patient; experiment: 51Cr-release assay, CTL of CLL patient against autologous peptide-pulsed DC; settings: adipophilin-peptide-induced CTL of CLL patient; FIG. 6
Description: In the CTL-assays, tumor cells, peptide-pulsed cells of different cell lines and autologous DC were used as target cells. Peptide-pulsed cells were pulsed with 50 μg/ml peptide (SEQ ID No. 1 or SEQ ID No. 2) for 2 hours. All target cells were labeled with [^51Cr] sodium chromate in RP10 (RPMI 1640, supplemented with 10% heat inactivated calf serum and antibiotics) for 1 hour at 37° C. Subsequently, 10^4 cells/well were transferred to a 96-well round bottomed plate. Varying numbers of CTL were added to give a final volume of 200 μl and incubated for 4 hours at 37° C. At the end of the assays, supernatants (50 μl/well) were harvested and counted in a beta-plate counter. […] The spontaneous and maximal release were determined in the presence of either medium or 2% Triton X-100, respectively.
In a further experiment, CTL were generated from PBMNC of HLA-A*0201-positive patient with chronic lymphatic leukemia (CLL), which were specific for adipophilin-peptide with SEQ ID NO:2. The patient was in remission after treatment with fludarabine. Further, autologous CLL-cells and DC of this patient were used as ^51Cr-labeled targets in an assay, in which ^51Cr-release is mediated by the peptide-induced CTL.

51Cr-labeled U 266 = experiment: Lysis-inhibition assay with cold peptide-pulsed T2 inhibitor cells, target U 266; settings: c-Met-peptide-induced CTL, inhibitor:target 20:1, FIGS. 4a and 4b
Description: (§1) To further verify the antigen-specificity and the MHC-restriction of the in-vitro-induced CTL, inhibition assays with non-^51Cr-labeled (“cold”) inhibitor cell lines were performed.
(§2) In doing so, the ability of peptide-pulsed cell lines was analyzed to inhibit the lysis of tumor cells (competition assay). For this purpose, an excess of inhibitor (that is an excess of unlabeled pulsed cells) was used. The ratio of inhibitor (peptide-pulsed cells) to target (tumor cells) was 20:1. When inhibitor cell lines were lysed, no ^51Cr was released, since the inhibitor cell lines were unlabeled.
(§3) Cell line T2 (HLA-A*02; TAP-deficient; see under 2.5.a) was used as inhibitor. Previous to the assay, this cell line T2 was pulsed with the relevant peptides (SEQ ID NOS:1 or 2) or an irrelevant control peptide (Survivin (=Sv), SEQ ID NO:80), respectively.
(§4) In FIGS. 4a and 4b, lysis of the ^51Cr-labeled cell lines U 266 and A 498 was tested without inhibitor cell line (see the curve with black filled boxes); lysis with inhibitor cell line T2, pulsed with an irrelevant peptide (Survivin; SEQ ID NO:80; negative control, curves with the filled triangles); and lyses with the inhibitor cell line T2 pulsed with the c-Met-peptide with SEQ ID NO:1 (curves with the empty rhombus).

51Cr-labeled A 498 = experiment: Lysis-inhibition assay with cold peptide-pulsed T2 inhibitor cells, target A 498
Description: as §1, §2, §3, §4
With these inhibition assays, the cells were incubated with 10 μg/ml antibody previous to seeding on the 96-well-plates for 30 min.

CD8+-T-lymphocytes = experiment: HLA-A*0201-tetramer staining of peripheral blood mononuclear cells from healthy individuals
Excerpt: Peripheral blood mononuclear cells from healthy patients were stained with HLA-A*0201-tetramers which were folded with adipophilin-, keratin 18- or met-protooncogene (c-Met)-peptides: For generation of the tetramers, recombinant HLA-A*0201-molecules were folded in vitro with the peptides […] (SEQ ID No. 2, adipophilin), […] (SEQ ID No. 3, keratin 18) or […] (SEQ ID No. 1, met-protooncogene, c-Met), purified by means of gel filtration, biotinylated and mixed with streptavidin to link the monomers.
In FIG. 1, the results of double staining are shown in dotplots, whereby in the middle row the results of staining with keratin 18 is shown. Between 0.02 and 0.2% of the CD8^+-positive T-cells were specific for keratin 18.

Sequence | lysis of autologous DC pulsed with the peptide [1] | lysis of 51Cr-labeled tumor cells in presence of unlabeled T2 inhibitor cells pulsed with the peptide (51Cr-labeled U 266) | inhibition of CTL-induced lysis of tumor cell line by T2 cells pulsed with the peptide (51Cr-labeled A 498; adipophilin-peptide-induced CTL, FIG. 4c) | lysis of 51Cr-labeled tumor cells in presence of unlabeled T2 inhibitor cells pulsed with the peptide (51Cr-labeled A 498; c-Met-peptide-induced CTL, inhibitor:target 20:1, FIGS. 4a and 4b) | healthy individuals with a significant population of specific CD8+-T-lymphocytes (CD8+-T-lymphocytes)
ELTLGEFLKL (listed as Homo sapiens) [Survivin, irrelevant control peptide, reference compound] | not lysed | not able to inhibit | not able to inhibit | not able to inhibit | –
ALLNIKVKL (listed as Homo sapiens) [SEQ ID No. 3, HLA-A*02 ligand, keratin 18 365-373] | – | – | – | – | four out of 22

Reference: US8536304B2, “Tumour-associated peptides that bind to MHC molecules” (Immatics Biotechnologies GmbH, priority 2002, dated 2013)
